Consider one compound from US6720341B2, “Preventives/remedies for kidney diseases” (Mitsubishi Pharma Corporation, priority 2000, dated 2004).

This test concerns renal interstitial fibrosis model mice. The test can be described thus: Action in renal interstitial fibrosis model mice due to unilateral ureteral ligation. Format: in vivo. Here is the method: Unilateral ureteral ligation mice were prepared according to the reported method (Kidney Int. 54, 110-119, (1998)). Male BL6/C3H F1 mice (6-week-old, body weight 25 g-30 g) were anesthetized with pentobarbital and subjected to median incision. Thereafter, left ureter was detached and ligated at two points with silk thread. Two models were prepared, and 10 mg/kg of Y-27632 was orally administered (administration with drinking water) to one group for consecutive days from 2 days prior to the operation. Ten days postoperation, the kidney on the ureter ligation side was removed, fixed with 4% paraformaldehyde and prepared into specimen, for staining, which were subjected to Masson trichrome staining. The level of renal interstitial fibrosis was calculated by image analysis of the area ratio (interstitium cortex area ratio:%) of the portion stained blue (fibrosis) relative to the entire sight. (Results)

For `C[C@@H](N)[C@H]1CC[C@H](C(=O)Nc2ccncc2)CC1` [Compound Y-27632, (+)-trans-4-(1-aminoethyl)-1-(4-pyridylcarbamoyl)cyclohexane 2HCl.1H2O], the “level of renal interstitial fibrosis” value (10 mg/kg orally, against non-administration group, p < 0.01 (t-test)) is “significantly suppressed”. The “portion stained blue (fibrosis) in Masson trichrome stained kidney specimen” value (FIG. 1B, Y-27632 administration group, 10 mg/kg orally, ten days postoperation) is on record as “scarcely detected”. Also, the “Area ratio of interstitium cortex (Fibrosis): % (average value ± SD)” value (unilateral ureteral ligation mice, 10 mg/kg orally (with drinking water) from 2 days prior to operation, kidney removed ten days postoperation, Masson trichrome staining, image analysis, n = 4) is 7.31 ± 3.11 %.
